Results taken from patent US9833497B2, “Human originated EGF domain proteins and use of the same” (CHENGDU SOURCEBIO LIMITED-LIABILITY COMPANY, priority 2013, dated 2017).

Assays:
Assay type in all cases: cell-based
E. coli DH5α = assay: Antibacterial activity: MIC and growth curve against E. coli DH5α in 96-well plate; settings: minimal inhibitory concentration against E. coli DH5α; 96-well plate, 5×10^5 CFU/mL, 37° C., judged after 8 h
In short: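 Log-phase bacteria (OD600 ~0.5) resuspended in LB at 5×10^5 CFU/mL, exposed to recombinant protein at 50, 25, 12.5 μg/mL final in triplicate, 37 °C shaking at 175 rpm. OD600 read every 30 min; MIC is lowest concentration showing no growth.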

E. coli BL21 = assay: MIC against Gram-negative bacteria: E. coli BL21
In short: (§1)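 Bacteria grown in LB at 37° C to McFarland 0.5, resuspended and seeded at 5×10^5 CFU/mL in 96-well plates. Purified human EGF-domain proteins two-fold serially diluted, triplicate wells; cultured at 37° C, shaking 175 rpm. MIC = lowest protein concentration with no growth.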

Aeromonas hydrophila = assay: MIC against Gram-negative bacteria: Aeromonas hydrophila
In short: as §1

Proteus vulgaris = assay: MIC against Gram-negative bacteria: Proteus vulgaris
In short: as §1

Serratia marcescens = assay: MIC against Gram-negative bacteria: Serratia marcescens
In short: as §1

Enterobacter cloacae = assay: MIC against Gram-negative bacteria: Enterobacter cloacae
In short: as §1

Citrobacter diversus = assay: MIC against Gram-negative bacteria: Citrobacter diversus
In short: as §1

Klebsiella pneumonia = assay: MIC against Gram-negative bacteria: Klebsiella pneumonia
In short: as §1

Pseudomonas aeruginosa = assay: MIC against Gram-negative bacteria: Pseudomonas aeruginosa
In short: as §1

Proteus mirabilis = assay: MIC against Gram-negative bacteria: Proteus mirabilis
In short: as §1

Moraxella catarrhalis = assay: MIC against Gram-negative bacteria: Moraxella catarrhalis
In short: as §1

[1] = E. coli BL21, 96-well plate, 5×10^5 CFU/mL, 37° C., 10 h
[2] = Aeromonas hydrophila, 96-well plate, 5×10^5 CFU/mL, 37° C., 10 h
[3] = Proteus vulgaris, 96-well plate, 5×10^5 CFU/mL, 37° C., 10 h
[4] = Serratia marcescens, 96-well plate, 5×10^5 CFU/mL, 37° C., 10 h
[5] = Enterobacter cloacae, 96-well plate, 5×10^5 CFU/mL, 37° C., 10 h
[6] = Citrobacter diversus, 96-well plate, 5×10^5 CFU/mL, 37° C., 10 h
[7] = Klebsiella pneumonia, 96-well plate, 5×10^5 CFU/mL, 37° C., 10 h
[8] = Pseudomonas aeruginosa, 96-well plate, 5×10^5 CFU/mL, 37° C., 10 h
[9] = Proteus mirabilis, 96-well plate, 5×10^5 CFU/mL, 37° C., 10 h
[10] = Moraxella catarrhalis, 96-well plate, 5×10^5 CFU/mL, 37° C., 10 h
[11] = 10 h cultivation at 37° C., 5×10^5 CFU/mL, two-fold serial dilution
[12] = 96-well plate, 5×10^5 CFU/mL, 37° C., 10 h

PRT86 (VTNACASGPCPPHADCRDLWQTFSCTCQPGYYGPGCV; listed as Homo sapiens)
MIC (E. coli DH5α): 50 µg/mL | MIC (μg/mL) E. coli BL21 (E. coli BL21; [1]): 12.5 µg/mL | MIC (μg/mL) A. hydrophila (Aeromonas hydrophila; [2]): 12.5 µg/mL | MIC (μg/mL) P. vulgaris (Proteus vulgaris; [3]): 12.5 µg/mL | MIC (μg/mL) S. marcescens (Serratia marcescens; [4]): 12.5 µg/mL | MIC (μg/mL) E. cloacae (Enterobacter cloacae; [5]): 25 µg/mL | MIC (μg/mL) C. diversus (Citrobacter diversus; [6]): 25 µg/mL | MIC (μg/mL) K. pneumonia (Klebsiella pneumonia; [7]): 12.5 µg/mL | MIC (μg/mL) P. aeruginosa (Pseudomonas aeruginosa; [8]): 25 µg/mL | MIC (μg/mL) P. mirabilis (Proteus mirabilis; [9]): 25 µg/mL | MIC (μg/mL) M. catarrhalis (Moraxella catarrhalis; [10]): 12.5 µg/mL

PRT1044 (FGQDCAETCDCAPDARCFPANGACLCEHGFTGDRCT; listed as Homo sapiens)
MIC (E. coli DH5α): 100 µg/mL | MIC E. coli BL21 (E. coli BL21; [11]): 50 µg/mL | MIC A. hydrophila (Aeromonas hydrophila; [11]): 50 µg/mL | MIC P. vulgaris (Proteus vulgaris; [11]): 25 µg/mL | MIC S. marcescens (Serratia marcescens; [11]): 50 µg/mL | MIC E. cloacae (Enterobacter cloacae; [11]): 50 µg/mL | MIC C. diversus (Citrobacter diversus; [11]): 50 µg/mL | MIC K. pneumonia (Klebsiella pneumonia; [11]): 12.5 µg/mL | MIC P. aeruginosa (Pseudomonas aeruginosa; [11]): 50 µg/mL | MIC P. mirabilis (Proteus mirabilis; [11]): 12.5 µg/mL | MIC M. catarrhalis (Moraxella catarrhalis; [11]): 25 µg/mL

PRT114 (PKYGCNFNNGGCHQDCFEGGDGSFLCGCRPGFRLLDDLVTCA; listed as Homo sapiens)
MIC (E. coli DH5α): 12.5 µg/mL | MIC (μg/mL) E. coli BL21 (E. coli BL21; [1]): 12.5 µg/mL | MIC (μg/mL) A. hydrophila (Aeromonas hydrophila; [2]): 25 µg/mL | MIC (μg/mL) P. vulgaris (Proteus vulgaris; [3]): 12.5 µg/mL | MIC (μg/mL) S. marcescens (Serratia marcescens; [4]): 12.5 µg/mL | MIC (μg/mL) E. cloacae (Enterobacter cloacae; [5]): 12.5 µg/mL | MIC (μg/mL) C. diversus (Citrobacter diversus; [6]): 12.5 µg/mL | MIC (μg/mL) K. pneumonia (Klebsiella pneumonia; [7]): 25 µg/mL | MIC (μg/mL) P. aeruginosa (Pseudomonas aeruginosa; [8]): 12.5 µg/mL | MIC (μg/mL) P. mirabilis (Proteus mirabilis; [9]): 12.5 µg/mL | MIC (μg/mL) M. catarrhalis (Moraxella catarrhalis; [10]): 12.5 µg/mL

PRT1210 (SVNPCSSKPCLYGGTCVVDNGGFVCQCRGLYTGQRCQ; listed as Homo sapiens)
MIC (E. coli DH5α): 25 µg/mL | MIC against E. coli BL21 (E. coli BL21; [1]): 12.5 µg/mL | MIC against A. hydrophila (Aeromonas hydrophila; [2]): 25 µg/mL | MIC against P. vulgaris (Proteus vulgaris; [3]): 25 µg/mL | MIC against S. marcescens (Serratia marcescens; [4]): 12.5 µg/mL | MIC against E. cloacae (Enterobacter cloacae; [5]): 25 µg/mL | MIC against C. diversus (Citrobacter diversus; [6]): 12.5 µg/mL | MIC against K. pneumonia (Klebsiella pneumonia; [7]): 12.5 µg/mL | MIC against P. aeruginosa (Pseudomonas aeruginosa; [8]): 25 µg/mL | MIC against P. mirabilis (Proteus mirabilis; [9]): 12.5 µg/mL | MIC against M. catarrhalis (Moraxella catarrhalis; [10]): 25 µg/mL

PRT914 (DARTCGSLRCLNGGTCISGPRSPTCLCLGPFTGPECQ; listed as Homo sapiens)
MIC (E. coli DH5α): 12.5 µg/mL | MIC (E. coli BL21; E. coli BL21, 10 h cultivation at 37° C.): 25 µg/mL | MIC (Aeromonas hydrophila; A. hydrophila, 10 h cultivation at 37° C.): 12.5 µg/mL | MIC (Proteus vulgaris; P. vulgaris, 10 h cultivation at 37° C.): 12.5 µg/mL | MIC (Serratia marcescens; S. marcescens, 10 h cultivation at 37° C.): 12.5 µg/mL | MIC (Enterobacter cloacae; E. cloacae, 10 h cultivation at 37° C.): 25 µg/mL | MIC (Citrobacter diversus; C. diversus, 10 h cultivation at 37° C.): 12.5 µg/mL | MIC (Klebsiella pneumonia; K. pneumonia, 10 h cultivation at 37° C.): 12.5 µg/mL | MIC (Pseudomonas aeruginosa; P. aeruginosa, 10 h cultivation at 37° C.): 12.5 µg/mL | MIC (Proteus mirabilis; P. mirabilis, 10 h cultivation at 37° C.): 12.5 µg/mL | MIC (Moraxella catarrhalis; M. catarrhalis, 10 h cultivation at 37° C.): 12.5 µg/mL

PRT672 (DIDECMLFGSEICKEGKCVNTQPGYECYCKQGFYYDGNLLECV; listed as Homo sapiens)
MIC (E. coli DH5α): 12.5 µg/mL | MIC E. coli BL21 (E. coli BL21; [12]): 25 µg/mL | MIC A. hydrophila (Aeromonas hydrophila; [12]): 12.5 µg/mL | MIC P. vulgaris (Proteus vulgaris; [12]): 50 µg/mL | MIC S. marcescens (Serratia marcescens; [12]): 12.5 µg/mL | MIC E. cloacae (Enterobacter cloacae; [12]): 12.5 µg/mL | MIC C. diversus (Citrobacter diversus; [12]): 25 µg/mL | MIC K. pneumonia (Klebsiella pneumonia; [12]): 25 µg/mL | MIC P. aeruginosa (Pseudomonas aeruginosa; [12]): 12.5 µg/mL | MIC P. mirabilis (Proteus mirabilis; [12]): 25 µg/mL | MIC M. catarrhalis (Moraxella catarrhalis; [12]): 12.5 µg/mL
